Experimental data as given in publication PMC11984407, “A natural small molecule isoginkgetin alleviates hypercholesterolemia and atherosclerosis by targeting ACLY” (Theranostics, 2025).

Columns and labels:
[1] = Copper-induced LDL oxidation, agarose gel electrophoresis; conditions: varying concentrations, copper 5 μM
Experimental: Prior to oxidation, EDTA was removed from LDL solutions (YB-001; Yiyuan Biotechnologies, Guangzhou, China). Subsequently, LDL solutions at a concentration of 0.2 mg/mL were incubated with varying concentrations of ISOGK in PBS for one h at 37 °C. The oxidation process was initiated by combining both native LDL and LDL pretreated with ISOGK with copper sulfate (99.0% purity; Jinshanting New Chemical Reagent Factory, Shanghai, China) to achieve a final copper concentration of 5 μM in PBS. This mixture was then incubated at 37 °C. Agarose gel electrophoresis was performed utilizing 0.5% agarose gels prepared in a sodium barbital buffer, following the stipulated electrophoretic methodology. The procedure was carried out in a 0.075 M sodium barbital buffer at a constant voltage of 55 V for a duration of one h. The relative electrophoretic mobility (REM) was determined by calculating the ratio of the migration distance of oxidized LDL to that of native LDL.

[2] = test system: HepG2 cell line; assay: CCK8 cell viability, HepG2; type: cell-based; conditions: concentrations below 7.5 μmol/L, 12 h
Experimental: The cellular viability was assessed by conducting CCK8 assays in primary hepatocytes from C57BL/6J mouse and HepG2 cell line. Specifically, 2,000 cells per well were plated in 96-well plates and cultured with different concentrations of ISOGK for 12 h. Following this, cell absorption was quantified using a CCK8 kit (CA1210, Solarbio, Beijing, China), adhering strictly to the manufacturer's guidelines. The presented data represents the findings from three independent experiments, with each experiment consisting of four replicates.

[3] = test system: C57BL/6J mice; assay: Safety assessment in normal C57BL/6J mice; type: in vivo, mouse; conditions: 20 mg/kg/day i.p., 4 weeks, male C57BL/6J
[4] = target: T1, ACLY (Mus musculus, UniProt Q91V92); assay: ACLY activity in vivo, mouse liver extracts (MDH-coupled method); parameters: from tissue; host or cells: liver of Apoe-/- mice dosed with ISOGK; conditions: male and female Apoe-/- mice, 20 mg/kg/day, 8 weeks
T1 sequence (Q91V92 1-1091): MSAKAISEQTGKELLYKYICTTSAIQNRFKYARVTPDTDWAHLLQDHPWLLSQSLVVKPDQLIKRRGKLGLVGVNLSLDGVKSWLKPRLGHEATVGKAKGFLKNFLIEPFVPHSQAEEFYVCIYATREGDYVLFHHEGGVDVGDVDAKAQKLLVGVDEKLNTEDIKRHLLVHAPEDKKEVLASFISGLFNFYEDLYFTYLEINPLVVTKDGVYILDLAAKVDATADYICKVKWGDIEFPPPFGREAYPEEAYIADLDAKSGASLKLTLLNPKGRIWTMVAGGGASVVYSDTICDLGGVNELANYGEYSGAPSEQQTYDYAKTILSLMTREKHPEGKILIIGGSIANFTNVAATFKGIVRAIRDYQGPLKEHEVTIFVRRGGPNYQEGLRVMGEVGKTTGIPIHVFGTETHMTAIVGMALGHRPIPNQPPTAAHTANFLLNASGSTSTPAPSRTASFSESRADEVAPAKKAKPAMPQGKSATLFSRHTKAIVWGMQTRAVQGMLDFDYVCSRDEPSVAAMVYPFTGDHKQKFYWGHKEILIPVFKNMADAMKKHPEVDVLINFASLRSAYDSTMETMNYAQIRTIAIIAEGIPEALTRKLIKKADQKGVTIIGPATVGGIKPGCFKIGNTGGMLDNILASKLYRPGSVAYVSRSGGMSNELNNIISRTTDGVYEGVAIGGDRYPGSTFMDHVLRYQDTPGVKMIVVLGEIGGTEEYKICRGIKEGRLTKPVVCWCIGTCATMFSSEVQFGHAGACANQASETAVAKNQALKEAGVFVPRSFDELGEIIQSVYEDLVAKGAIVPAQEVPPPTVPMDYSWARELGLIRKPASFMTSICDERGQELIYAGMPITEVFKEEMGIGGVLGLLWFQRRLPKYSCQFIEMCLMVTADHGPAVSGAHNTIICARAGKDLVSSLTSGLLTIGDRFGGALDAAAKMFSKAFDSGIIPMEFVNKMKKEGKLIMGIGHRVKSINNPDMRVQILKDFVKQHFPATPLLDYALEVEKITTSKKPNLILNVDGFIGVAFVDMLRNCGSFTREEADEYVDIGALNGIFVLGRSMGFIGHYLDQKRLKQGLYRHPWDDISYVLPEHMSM
Experimental: The activity of the ACLY enzyme was assayed utilizing malate dehydrogenase (MDH)-coupled method kits (BC4240, Solarbio, Beijing, China). In summary, liver extracts were incubated in a reaction buffer comprising 20 mM citrate, 10 mM MgCl₂, 10 mM DTT, 0.5 U/ml of malic dehydrogenase, 0.33 mM CoASH, and 0.14 mM NADH, both in the presence and absence of 5 mM ATP. The quantity of oxaloacetate produced by ACLY catalysis was determined by measuring the alteration in absorbance at 340 nm, which corresponds to the depletion of NADH during the MDH-catalyzed reaction. After accounting for background variations in absorbance in the absence of ATP, the relative ACL activities were computed by normalizing the data to the weight of the liver tissue.

[5] = Pharmacokinetics study in ICR mice; type: in vivo, mouse
Experimental: Pharmacokinetic properties were investigated using ICR mice weighing between 18 and 22 grams. Six mice were assigned into two groups, with three in each group. ISOGK was administered via intragastric and tail vein injections. For both the intravenous and intragastric administration groups, cheek blood samples of approximately 0.05 mL were collected at 5 min, 15 min, 30 min, 1 h, 2 h, 4 h, 6 h, 8 h, and 24 h post-administration. The plasma concentration of compound in the mice was measured using the LC-MS/MS technique. Pharmacokinetic parameters were then analyzed using WinNonlin software.

COc1ccc(-c2cc(=O)c3c(O)cc(O)c(-c4cc(-c5cc(=O)c6c(O)cc(O)cc6o5)ccc4OC)c3o2)cc1 [ISOGK, Isoginkgetin]
antioxidant activity against copper-induced LDL oxidation (REM) [1]: no antioxidant activity | cytotoxicity (CCK-8) [2]: no significant cytotoxicity | H&E staining of heart, liver, spleen, lungs, kidneys [3]: no histological differences | PAS staining of kidney tissues [3]: no significant difference in glycogen deposits | body weight vs vehicle [3]: no statistically significant differences | fasting blood glucose (FBG) vs vehicle [3]: no statistically significant differences | lactate dehydrogenase (LDH) [3]: no variation | ratio of liver weight to body weight [3]: no significant change | serum ALT, AST, ALP, BUN, CREA, CK, CK-MB vs vehicle [3]: did not induce any significant difference | ACLY enzyme activity in liver tissue [4]: significantly inhibits ACLY activity | peak plasma concentration ([5]; intravenous 5 mg/kg): 710 ng/mL | Tmax ([5]; mouse, plasma, intravenous 5 mg/kg, read-out: time of peak plasma concentration (converted)): 5 min | plasma levels after oral administration ([5]; oral 20 mg/kg): almost undetectable | oral bioavailability ([5]; oral 20 mg/kg vs intravenous 5 mg/kg): low oral bioavailability
